Test results reported in US9446039B2, “Aminoheteroaryl compounds as MTH1 inhibitors” (CEMM—FORSCHUNGSZENTRUM FÜR MOLEKULARE MEDIZIN GMBH, priority 2012, dated 2016).

How the values were obtained:
Format in all cases: binding
[1] = molecular target: SW480 colon carcinoma cells lysate proteins (Homo sapiens, UniProt Q14974); settings: PreyGene KPNB1
[2] = molecular target: SW480 colon carcinoma cells lysate proteins (Homo sapiens, UniProt Q02878); settings: PreyGene RPL6; SW480 cells
[3] = molecular target: T1, SW480 colon carcinoma cells lysate proteins (Homo sapiens, UniProt P10599); settings: PreyGene TXN
T1 sequence (P10599 1-105): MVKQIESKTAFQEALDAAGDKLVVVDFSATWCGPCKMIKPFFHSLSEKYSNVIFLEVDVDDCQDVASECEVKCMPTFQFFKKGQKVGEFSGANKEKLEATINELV

[4] = molecular target: SW480 colon carcinoma cells lysate proteins (Homo sapiens, UniProt O00571); settings: PreyGene DDX3X
[5] = molecular target: SW480 colon carcinoma cells lysate proteins (Homo sapiens, UniProt Q9BQE3); settings: PreyGene TUBA1C; SW480 cells
[6] = molecular target: T2, SW480 colon carcinoma cells lysate proteins (Homo sapiens, UniProt P11586); settings: PreyGene MTHFD1
T2 sequence (P11586 1-935): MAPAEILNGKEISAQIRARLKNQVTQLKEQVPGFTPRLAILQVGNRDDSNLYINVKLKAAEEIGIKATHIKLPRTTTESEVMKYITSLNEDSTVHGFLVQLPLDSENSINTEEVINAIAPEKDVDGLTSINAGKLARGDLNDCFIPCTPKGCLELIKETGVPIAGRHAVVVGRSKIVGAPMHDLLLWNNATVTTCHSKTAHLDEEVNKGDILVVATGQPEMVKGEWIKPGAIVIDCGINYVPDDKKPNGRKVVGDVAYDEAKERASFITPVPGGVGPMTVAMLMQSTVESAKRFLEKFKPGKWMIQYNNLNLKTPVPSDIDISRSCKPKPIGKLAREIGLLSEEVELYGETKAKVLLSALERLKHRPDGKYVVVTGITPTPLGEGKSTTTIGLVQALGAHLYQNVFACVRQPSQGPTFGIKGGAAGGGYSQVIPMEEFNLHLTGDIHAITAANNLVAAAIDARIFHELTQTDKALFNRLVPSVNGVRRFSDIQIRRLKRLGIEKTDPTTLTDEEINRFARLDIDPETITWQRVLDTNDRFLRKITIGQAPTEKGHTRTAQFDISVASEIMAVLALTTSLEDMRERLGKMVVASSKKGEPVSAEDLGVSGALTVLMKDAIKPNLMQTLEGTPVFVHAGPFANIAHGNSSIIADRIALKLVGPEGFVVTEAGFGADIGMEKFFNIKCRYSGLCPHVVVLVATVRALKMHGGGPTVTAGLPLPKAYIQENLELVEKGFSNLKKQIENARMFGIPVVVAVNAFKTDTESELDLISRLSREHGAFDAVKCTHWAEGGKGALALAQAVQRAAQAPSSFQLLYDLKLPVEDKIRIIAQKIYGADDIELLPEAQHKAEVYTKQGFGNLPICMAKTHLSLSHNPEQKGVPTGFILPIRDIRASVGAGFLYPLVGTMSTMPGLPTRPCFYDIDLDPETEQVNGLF

[7] = molecular target: SW480 colon carcinoma cells lysate proteins (Homo sapiens, UniProt P12004); settings: PreyGene PCNA
[8] = molecular target: SW480 colon carcinoma cells lysate proteins (Homo sapiens, UniProt Q07812); settings: PreyGene BAX; SW480 cells
[9] = molecular target: T3, SW480 colon carcinoma cells lysate proteins (Homo sapiens, UniProt P78371); settings: PreyGene CCT2; SW480 cells
T3 sequence (P78371 1-535): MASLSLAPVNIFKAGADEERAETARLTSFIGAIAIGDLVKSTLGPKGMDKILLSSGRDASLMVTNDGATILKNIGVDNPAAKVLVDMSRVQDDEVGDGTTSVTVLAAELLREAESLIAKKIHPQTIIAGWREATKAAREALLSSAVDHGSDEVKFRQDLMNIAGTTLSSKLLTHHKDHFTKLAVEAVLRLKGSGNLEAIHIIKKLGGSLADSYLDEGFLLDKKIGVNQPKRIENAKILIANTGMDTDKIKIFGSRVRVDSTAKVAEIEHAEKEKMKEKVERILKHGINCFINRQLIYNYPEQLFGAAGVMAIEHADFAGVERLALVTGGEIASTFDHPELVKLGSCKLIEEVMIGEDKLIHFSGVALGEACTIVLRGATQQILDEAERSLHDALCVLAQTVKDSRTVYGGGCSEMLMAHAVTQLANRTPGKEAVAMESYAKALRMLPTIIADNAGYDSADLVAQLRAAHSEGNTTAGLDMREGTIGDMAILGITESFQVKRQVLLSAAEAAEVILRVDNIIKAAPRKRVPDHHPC

Sequence of SW480 colon carcinoma cells lysate proteins (Homo sapiens, UniProt Q14974) (Q14974 whole entry): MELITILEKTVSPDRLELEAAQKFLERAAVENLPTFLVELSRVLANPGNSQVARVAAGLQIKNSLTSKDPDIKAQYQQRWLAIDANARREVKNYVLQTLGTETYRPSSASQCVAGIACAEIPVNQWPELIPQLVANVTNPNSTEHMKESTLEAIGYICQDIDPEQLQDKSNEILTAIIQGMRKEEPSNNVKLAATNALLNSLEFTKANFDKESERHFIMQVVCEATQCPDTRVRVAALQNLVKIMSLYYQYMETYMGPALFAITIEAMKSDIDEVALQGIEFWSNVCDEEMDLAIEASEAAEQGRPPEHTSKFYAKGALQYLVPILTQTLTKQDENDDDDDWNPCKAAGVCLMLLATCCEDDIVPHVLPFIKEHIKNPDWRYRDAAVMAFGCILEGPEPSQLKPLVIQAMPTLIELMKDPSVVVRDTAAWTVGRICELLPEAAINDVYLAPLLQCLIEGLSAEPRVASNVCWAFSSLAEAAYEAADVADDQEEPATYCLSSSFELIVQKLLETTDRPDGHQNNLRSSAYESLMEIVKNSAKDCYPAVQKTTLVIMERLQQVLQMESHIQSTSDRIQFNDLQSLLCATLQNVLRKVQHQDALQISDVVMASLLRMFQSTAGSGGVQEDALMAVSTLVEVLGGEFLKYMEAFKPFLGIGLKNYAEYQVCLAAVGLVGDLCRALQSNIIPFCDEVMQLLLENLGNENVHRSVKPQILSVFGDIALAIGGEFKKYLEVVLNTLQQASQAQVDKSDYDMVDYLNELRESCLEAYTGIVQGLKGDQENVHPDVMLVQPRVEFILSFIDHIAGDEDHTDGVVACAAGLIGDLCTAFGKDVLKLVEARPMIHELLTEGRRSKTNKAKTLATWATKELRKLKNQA
Sequence of SW480 colon carcinoma cells lysate proteins (Homo sapiens, UniProt O00571) (O00571 whole entry): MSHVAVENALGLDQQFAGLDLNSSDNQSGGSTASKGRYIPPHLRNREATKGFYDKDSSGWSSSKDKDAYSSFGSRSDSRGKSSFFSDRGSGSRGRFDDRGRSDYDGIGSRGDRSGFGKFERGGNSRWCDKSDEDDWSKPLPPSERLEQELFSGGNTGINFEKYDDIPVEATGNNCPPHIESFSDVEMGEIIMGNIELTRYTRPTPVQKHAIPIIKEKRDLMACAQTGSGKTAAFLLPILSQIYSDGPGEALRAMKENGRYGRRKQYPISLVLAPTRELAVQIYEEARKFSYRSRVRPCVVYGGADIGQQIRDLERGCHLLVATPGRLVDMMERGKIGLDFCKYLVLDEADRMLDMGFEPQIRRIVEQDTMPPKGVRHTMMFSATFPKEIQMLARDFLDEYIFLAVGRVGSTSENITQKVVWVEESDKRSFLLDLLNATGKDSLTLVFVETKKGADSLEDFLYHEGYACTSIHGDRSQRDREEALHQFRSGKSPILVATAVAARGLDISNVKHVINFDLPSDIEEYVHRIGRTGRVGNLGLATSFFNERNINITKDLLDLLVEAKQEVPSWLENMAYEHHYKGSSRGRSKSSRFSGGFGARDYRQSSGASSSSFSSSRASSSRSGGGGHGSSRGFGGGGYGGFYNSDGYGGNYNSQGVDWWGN
Sequence of SW480 colon carcinoma cells lysate proteins (Homo sapiens, UniProt Q9BQE3) (Q9BQE3 whole entry): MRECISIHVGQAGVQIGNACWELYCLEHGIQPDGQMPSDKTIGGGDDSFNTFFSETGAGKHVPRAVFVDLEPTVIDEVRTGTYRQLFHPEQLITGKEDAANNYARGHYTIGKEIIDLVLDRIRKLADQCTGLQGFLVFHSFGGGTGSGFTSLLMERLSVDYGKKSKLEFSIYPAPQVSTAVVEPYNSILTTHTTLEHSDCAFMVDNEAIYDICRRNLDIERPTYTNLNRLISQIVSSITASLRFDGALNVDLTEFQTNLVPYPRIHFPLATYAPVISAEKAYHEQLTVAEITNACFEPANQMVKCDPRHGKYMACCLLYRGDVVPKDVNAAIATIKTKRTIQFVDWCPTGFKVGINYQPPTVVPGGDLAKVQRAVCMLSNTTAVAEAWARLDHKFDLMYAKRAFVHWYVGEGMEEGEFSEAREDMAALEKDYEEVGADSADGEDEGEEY
Sequence of SW480 colon carcinoma cells lysate proteins (Homo sapiens, UniProt P12004) (P12004 whole entry): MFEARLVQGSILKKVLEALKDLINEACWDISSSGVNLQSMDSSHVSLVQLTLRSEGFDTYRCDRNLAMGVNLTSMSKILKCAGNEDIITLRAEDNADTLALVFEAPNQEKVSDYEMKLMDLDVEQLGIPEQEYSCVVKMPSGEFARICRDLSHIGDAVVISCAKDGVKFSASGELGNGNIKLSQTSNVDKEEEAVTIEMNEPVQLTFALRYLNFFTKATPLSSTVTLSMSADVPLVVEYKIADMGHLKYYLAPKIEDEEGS
Sequence of SW480 colon carcinoma cells lysate proteins (Homo sapiens, UniProt Q07812) (Q07812 whole entry): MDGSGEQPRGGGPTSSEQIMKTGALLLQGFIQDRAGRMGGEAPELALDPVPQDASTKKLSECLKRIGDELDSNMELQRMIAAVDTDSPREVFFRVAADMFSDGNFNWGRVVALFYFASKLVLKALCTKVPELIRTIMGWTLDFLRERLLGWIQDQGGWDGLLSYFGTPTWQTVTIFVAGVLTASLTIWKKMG

With `C[C@H](Oc1cc(-c2cnn(C3CCNCC3)c2)cnc1N)c1c(Cl)ccc(F)c1Cl` [(5)-crizotinib] the AvgP [1] was 0.5773, the “SC.Exp. 1-1” value [1] was 7 and the “SC.Exp. 1-2” value [1] was 6. For the same molecule, the “SC.Exp. 2-1” value [1] was 1, the “SC.Exp. 2-2” value [1] was 0 and the “Sum (SC.Exp.)” value [1] was 14. The AvgP [2] was 0, the “SC.Exp. 1-1” value [2] was 7 and the “SC.Exp. 1-2” value [2] was 11. For the same molecule, the “SC.Exp. 2-1” value [2] was 4, the “SC.Exp. 2-2” value [2] was 6 and the “SC.Exp. Sum” value [2] was 28. The AvgP [3] was 0.4587, the “SC.Exp. 1-1” value [3] was 4 and the “SC.Exp. 1-2” value [3] was 5. For the same molecule, the “SC.Exp. 2-1” value [3] was 2, the “SC.Exp. 2-2” value [3] was 1 and the “Sum (SC.Exp.)” value [3] was 12. For the same molecule, the AvgP [4] was 0.7764, the “SC.Exp. 1-1” value [4] was 2 and the “SC.Exp. 1-2” value [4] was 2. The “SC.Exp. 2-1” value [4] was 1, the “SC.Exp. 2-2” value [4] was 2 and the “Sum (SC.Exp.)” value [4] was 7. For the same molecule, the AvgP [5] was 0, the “SC.Exp. 1-1” value [5] was 1 and the “SC.Exp. 1-2” value [5] was 1. The “SC.Exp. 2-1” value [5] was 0, the “SC.Exp. 2-2” value [5] was 1 and the “SC.Exp. Sum” value [5] was 3. For the same molecule, the AvgP [6] was 0.2666, the “SC.Exp. 1-1” value [6] was 2 and the “SC.Exp. 1-2” value [6] was 2. For the same molecule, the “SC.Exp. 2-1” value [6] was 0, the “SC.Exp. 2-2” value [6] was 0 and the “Sum (SC.Exp.)” value [6] was 4. For the same molecule, the AvgP [7] was 0.3137, the “SC.Exp. 1-1” value [7] was 2 and the “SC.Exp. 1-2” value [7] was 1. The “SC.Exp. 2-1” value [7] was 0, the “SC.Exp. 2-2” value [7] was 0 and the “Sum (SC.Exp.)” value [7] was 3. The AvgP [8] was 0, the “SC.Exp. 1-1” value [8] was 1 and the “SC.Exp. 1-2” value [8] was 1. The “SC.Exp. 2-1” value [8] was 1, the “SC.Exp. 2-2” value [8] was 1 and the “SC.Exp. Sum” value [8] was 4. The AvgP [9] was 0, the “SC.Exp. 1-1” value [9] was 9 and the “SC.Exp. 1-2” value [9] was 11. The “SC.Exp. 2-1” value [9] was 3, the “SC.Exp. 2-2” value [9] was 3 and the “SC.Exp. Sum” value [9] was 26.
